Measurements from patent US10738072B1, “Nucleotide analogues” (Singular Genomics Systems, Inc., priority 2018, dated 2020).

Biological target: T1, modified thermophilic polymerase (Therminator 3, from New England BioLabs) (Thermococcus sp., UniProt Q56366, D141A/E143A/L408S/P410V/Y409A)
T1 construct: purchased New England BioLabs
Assay: Incorporation of 3′-terminated nucleotides by a modified thermophilic polymerase
Assay type: biochemical, Thermococcus sp. 9 degrees N-7
Settings: pH 8.5, nucleotides at 200 nM, 4 mM Mg, 55° C.; polymerase pre-bound to primed DNA template
Source text: Another important property of a nucleotide with a reversible terminator (e.g., 3′ cleavable moiety as described herein) is the ability to be rapidly incorporated by a DNA polymerase. Naturally occurring DNA polymerases are typically not capable of incorporating nucleotides modified with reversible terminator (e.g., 3′ cleavable moiety as described herein) at the 3′ position on the ribose of the nucleotide. As known in the art, a number of thermophilic polymerases have been engineered to enable the incorporation of nucleotides modified with 3′ terminators. […] The reaction was carried out in a buffered solution at pH 8.5, with nucleotides at 200 nM concentration, 4 mM Mg, at a temperature of 55° C. The polymerase was pre-bound to the primed DNA template. All three terminated nucleotides are efficiently incorporated by the modified DNA polymerase. The polymerase can be further modified for desired properties such as incorporation rate and accuracy.

T1 sequence (Q56366 whole entry D141A/E143A/L408S/Y409A/P410V): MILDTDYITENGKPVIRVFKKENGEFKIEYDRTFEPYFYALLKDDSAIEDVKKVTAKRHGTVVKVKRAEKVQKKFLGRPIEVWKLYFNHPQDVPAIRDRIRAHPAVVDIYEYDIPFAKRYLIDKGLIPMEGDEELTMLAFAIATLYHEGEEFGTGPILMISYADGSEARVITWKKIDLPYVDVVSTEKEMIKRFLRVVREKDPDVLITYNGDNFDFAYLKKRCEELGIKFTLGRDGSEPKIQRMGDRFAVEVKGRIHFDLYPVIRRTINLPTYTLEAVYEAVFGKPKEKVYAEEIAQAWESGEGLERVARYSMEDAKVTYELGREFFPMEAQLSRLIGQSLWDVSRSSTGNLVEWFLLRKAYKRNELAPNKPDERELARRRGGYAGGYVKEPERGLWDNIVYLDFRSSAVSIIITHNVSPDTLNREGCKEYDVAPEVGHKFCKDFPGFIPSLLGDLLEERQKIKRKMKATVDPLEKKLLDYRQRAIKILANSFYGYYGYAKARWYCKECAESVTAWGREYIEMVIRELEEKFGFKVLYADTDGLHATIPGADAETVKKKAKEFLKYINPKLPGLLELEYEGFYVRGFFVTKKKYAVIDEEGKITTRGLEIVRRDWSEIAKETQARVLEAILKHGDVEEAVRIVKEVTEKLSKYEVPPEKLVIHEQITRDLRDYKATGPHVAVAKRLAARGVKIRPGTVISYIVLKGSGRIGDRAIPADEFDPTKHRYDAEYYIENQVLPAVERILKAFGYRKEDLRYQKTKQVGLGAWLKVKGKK

CSSCOC1CC(n2cc(C)c(=O)[nH]c2=O)OC1COP(=O)(O)OP(=O)(O)OP(=O)(O)O (stereo not shown) [RT #1, 3′O—CH2—S—S—CH3]
Incorporation half-time: 14 ± 3 s
